Key:
TXA2 synthetase = assay: Inhibitory effect on TXA2 synthetase (TXB2 synthesis in A23187-stimulated whole blood); assay type: cell-based, Male Wistar rats; details: at 10 μM; rat heparinized whole blood, Ca ionophore A23187, TXB2 by EIA; CH3SO3H salt
Procedure: Male Wistar rats were starved overnight. Five hundreds microliter of heparinized (10 U/mL) whole blood was collected from abdominal aorta using polyethylene syringe (needle: 22 or 26 G). The blood freshly drawn from animal was preincubated with 5 μL of test compound at 37° C. Five minutes later, 2.5 μL of 6 mM of Ca ionophore A23187 (final concentration of 30 μM) was added into tube, and incubation mixture was further incubated for 15 min. The reaction was terminated by centrifugation of tubes at 12,000 rpm for 2 min. TXB2 content in the supernatant was determined by EIA as follows.
One milliliter of 0.5M glycine-HCl buffer (pH 3.2) was added to 100 μL of sample. The samples were mixed well and centrifuged at 1,700 G for 10 min. at 4° C. The extracted supernatant was applied to a SEP-PAK (registered Trade Mark) C18 cartridge (Waters Assoc.). After washing with 10 mL of distilled water followed by 10 mL each of 15% ethanol and petroleum ether, the sample was eluted with 3 mL of ethyl acetate. The ethyl acetate fraction was evaporated to dryness under gentle N2 stream and the residue was dissolved in EIA buffer (final volume of 1 mL) following the addition of 300 μL of 0.01M NaHCO3 --NaOH buffer (pH 10.0). EIA for TXB2 was carried out according to a legend attached to the kit (Chyman Chemical Co., Inc.). Overall recovery of TXB2 in this extraction procedure was 90%. […]

cGMP-PDE = cGMP-PDE (Homo sapiens, UniProt O76074); assay: Inhibitory effect on cGMP-PDE; assay type: biochemical; details: PDE IC isolated from human platelets; substrate 3H-cGMP; tested as 2HCl salt (2, 2(3)), CH3SO3H salt (2(5), 2(7), 5, 6(1)), free base (4, 7, 8)

| Structure (SMILES) | Inhibitory activity on TXA2 synthetase (TXA2 synthetase) | IC50 (cGMP-PDE) |
| --- | --- | --- |
| c1cn(-c2nc3c(c(NCc4ccc5c(c4)OCO5)n2)CSCC3)cn1 [Example 2(7)] | 63% | 24 nM |
| c1ccc(CNc2cc(-c3ccccc3)nn3cnnc23)cc1 [Example 8] |  | 940 nM |
| [O-][S+]1CCCc2nc(-n3ccnc3)nc(NCc3ccccc3)c21 (stereo not shown) [Example 5] |  | 3200 nM |
| c1ccc(CNc2cc(-c3ccccc3)nc3ncnn23)cc1 [Example 7] |  | 3100 nM |
| c1ccc(CNc2nc(-n3ccnc3)nc3c2CSCC3)cc1 [Example 2(5)] |  | 100 nM |
| O=S1(=O)CCc2nc(-n3ccnc3)nc(NCc3ccccc3)c2C1 [Example 6(1)] |  | 380 nM |
| c1ccc(CNc2nc(-n3ccnc3)nc3c2SCCC3)cc1 [Example 2(3)] |  | 100 nM |
| Cc1csc2nc(-n3ccnc3)nc(NCc3ccccc3)c12 [Example 2, 4-benzylamino-2-(1-imidazolyl)-5-methylthieno[2,3-d]pyrimidine dihydrochloric acid] |  | 125 nM |
| O=C(O)C1CCN(c2nc3c(c(NCc4ccc5c(c4)OCO5)n2)CSCC3)CC1 [Example 4] |  | 380 nM |
